According to PMC11271513, “Pseudoirreversible inhibition elicits persistent efficacy of a sphingosine 1-phosphate receptor 1 antagonist” (Nature Communications, 2024):

Experiments:
[1] = biological target: T1, Sphingosine 1-phosphate receptor 1 (S1PR1) (Homo sapiens, UniProt P21453, M124V); assay: functional reversibility assays (internalization, cAMP); assay type: cell-based
T1 construct: HiBiT-tagged human S1PR1 Val124 mutant in HEK293 cells

[2] = biological target: T2, Sphingosine 1-phosphate receptor 1 (S1PR1) (Homo sapiens, UniProt P21453); assay: GTP binding assay; also functional reversibility and washout dissociation half-life […] h; assay type: biochemical
T2 construct: human S1PR1 in HEK293 cell membranes
T2 sequence (P21453 whole entry): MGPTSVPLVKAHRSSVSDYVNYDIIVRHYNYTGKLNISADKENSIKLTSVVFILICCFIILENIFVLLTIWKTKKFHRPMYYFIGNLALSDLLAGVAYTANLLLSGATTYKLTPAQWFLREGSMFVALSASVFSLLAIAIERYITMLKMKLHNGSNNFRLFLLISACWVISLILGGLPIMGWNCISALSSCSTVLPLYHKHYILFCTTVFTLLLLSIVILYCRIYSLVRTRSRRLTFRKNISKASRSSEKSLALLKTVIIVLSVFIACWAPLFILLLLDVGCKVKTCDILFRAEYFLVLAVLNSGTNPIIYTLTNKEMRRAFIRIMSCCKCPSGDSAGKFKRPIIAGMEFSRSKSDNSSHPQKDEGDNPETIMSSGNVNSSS

T1 sequence (P21453 whole entry M124V): as the sequence (P21453 whole entry) above, with M124V counted along it

For `CCN(c1ccc(Cl)c(C(F)(F)F)c1)C(C)c1ccc(C)c(CN2CC(C(=O)O)C2)c1` (racemic) [KSI-6666], the “functional reversibility assays (internalization, cAMP)” value [1] was “in the Val124 mutant, pre-bound KSI-6666 was almost completely replaced by the added agonist” and the IC50 [2] was 6.4 nM.
